In patent US8119569B2, “Benzoylpyrazole compounds, process for their production and herbicides containing them” (Ishihara Sangyo Kaisha, Ltd., priority 2006, dated 2012):

Columns and labels:
Format in all cases: in vivo
[1] = tested on: rice (Oryza sativa L.) (var.: Nihonbare); experiment: Test Example 4: paddy field pot, water application, transplanted rice; conditions: 63 g/ha, 21st day after application, crop
Source text: (§1) Paddy field soil was put into a 1/1,000,000 hectare pot, and seeds of barnyardgrass (Echinochloa oryzicola vasing.) and Japanese bulrush (Scirpus juncoides) were sown and lightly covered with soil. Then, pot was left to stand in a greenhouse in a state irrigated to a water depth of from 0.5 to 1 cm, and next day or two days later, tubers of Japanese ribbon waparo (Sagittaria pygmaea) were planted. Then, the irrigated water depth was maintained to be from 3 to 4 cm, and when barnyardgrass and Japanese bulrush reached 0.5 leaf stage, and Japanese ribbon waparo reached primary leaf stage, a water diluted solution of a wettable powder or an emulsifieable concentrate of the compound of the present invention prepared in accordance with a conventional preparation method, was uniformly dropwise applied by a pipette so that the amount of active ingredients would be a prescribed amount. Further, paddy field soil was put into a 1/1,000,000 pot, followed by soil puddling to an irrigated water depth of from 3 to 4 cm. Next day, rice (Oryza sativa L.) (var.: Nihonbare) of two leaf stage was transplanted in a transplantation depth of 3 cm. On the 4th day after transplantation, the compound of the present invention was applied in the same manner as described above.

[2] = tested on: Japanese ribbon waparo (Sagittaria pygmaea); experiment: Test Example 4: paddy field pot, water application; conditions: 63 g/ha, 14th day after application
Source text: as §1

[3] = tested on: barnyardgrass (Echinochloa oryzicola vasing.); experiment: Test Example 4: paddy field pot, water application; conditions: 63 g/ha, 14th day after application
Source text: as §1

[4] = tested on: Japanese bulrush (Scirpus juncoides); experiment: Test Example 4: paddy field pot, water application; conditions: 63 g/ha, 14th day after application
Source text: as §1

[5] = tested on: crabgrass (Digitaria sanguinalis L.); experiment: Test Example 2: soil application on the day after sowing; conditions: 250 g/ha, 19th to 22nd day after application
Source text: (§2) Upland field soil was put into a 1/170,000 hectare pot, and seeds of various plants (barnyardgrass (Echinochloa crus-galli L.), crabgrass (Digitaria sanguinalis L.), green foxtail (Setaria viridis L.), redroot pigweed (Amaranthus retroflexus L.), prickly sida (Sida spinosa L.), velvetleaf (Abutilon theophrasti MEDIC.), rice (oryza sativa L.), corn (Zea mays L.) and soybean (Glycine max Merr.)) were sown. On the day after sowing, wettable powders or emulsifiable concentrates of the compounds of the present invention prepared in accordance with a conventional preparation method, were weighed so that the active ingredients became the prescribed amounts, and diluted with water in an amount corresponding to 500 liter per 1 hectare, followed by soil application with a small sprayer.

[6] = tested on: barnyardgrass (Echinochloa crus-galli L.); experiment: as above; conditions: 250 g/ha, 19th to 22nd day after application
Source text: as §2

[7] = tested on: prickly sida (Sida spinosa L.); experiment: as above; conditions: 250 g/ha, 19th to 22nd day after application
Source text: as §2

[8] = tested on: green foxtail (Setaria viridis L.); experiment: as above; conditions: 250 g/ha, 19th to 22nd day after application
Source text: as §2

rice (Oryza sativa L.) [9] = experiment: as above; conditions: 250 g/ha, 19th to 22nd day after application, crop
Source text: as §2

corn (Zea mays L.) [10] = experiment: as above; conditions: 250 g/ha, 19th to 22nd day after application, crop
Source text: as §2

[11] = tested on: velvetleaf (Abutilon theophrasti MEDIC.); experiment: as above; conditions: 250 g/ha, 19th to 22nd day after application
Source text: as §2

[12] = tested on: soybean (Glycine max Merr.); experiment: as above; conditions: 250 g/ha, 19th to 22nd day after application, crop
Source text: as §2

[13] = tested on: redroot pigweed (Amaranthus retroflexus L.); experiment: as above; conditions: 250 g/ha, 19th to 22nd day after application
Source text: as §2

[14] = tested on: crabgrass (Digitaria sanguinalis L.); experiment: Test Example 1: foliar treatment, upland pot; conditions: 7 g/ha, 21st day after application
Source text: (§3) Upland field soil was put into a 1/170,000 hectare pot, and seeds of various plants were sown. When the respective plants reached predetermined leaf stage ((1) barnyardgrass (Echinochloa crus-galli L.): 1.0 to 3.3 leaf stage, (2) crabgrass (Digitaria sanguinalis L.): 1.2 to 3.0 leaf stage, (3) green foxtail (Setaria viridis L.): 1.5 to 3.3 leaf stage, (4) redroot pigweed (Amaranthus retroflexus L.): 0.1 to 2.0 leaf stage, (5) prickly sida (Sida spinosa L.): cotyledon stage to 2.0 leaf stage, (6) velvetleaf (Abutilon theophrasti MEDIC.): 0.1 to 2.0 leaf stage, (7) rice (Oryza sativa L.): 1.3 to 3.0 leaf stage, (8) corn (Zea mays L.): 2.5 to 3.4 leaf stage, and (9) soybean (Glycine max Merr.): primary leaf stage to 0.3 leaf stage), wettable powders or emulsifiable concentrates of the compounds of the present invention prepared in accordance with a conventional preparation method, were weighed so that the active ingredients became the prescribed amounts, and diluted with water in an amount corresponding to 500 liter per 1 hectare (containing 0.1 vol % of an agricultural spreader (“KUSARINOH”, manufactured by NIHON NOHYAKU CO., LTD.)). The spray solutions thus prepared were applied for foliar treatment by a small sprayer.

[15] = tested on: barnyardgrass (Echinochloa crus-galli L.); experiment: Test Example 1: foliar treatment, upland pot; conditions: 7 g/ha, 21st day after application
Source text: as §3

[16] = tested on: prickly sida (Sida spinosa L.); experiment: Test Example 1: foliar treatment, upland pot; conditions: 7 g/ha, 21st day after application
Source text: as §3

[17] = tested on: green foxtail (Setaria viridis L.); experiment: Test Example 1: foliar treatment, upland pot; conditions: 7 g/ha, 21st day after application
Source text: as §3

rice (Oryza sativa L.) [18] = experiment: Test Example 1: foliar treatment, upland pot; conditions: 7 g/ha, 21st day after application, crop
Source text: as §3

corn (Zea mays L.) [19] = experiment: Test Example 1: foliar treatment, upland pot; conditions: 7 g/ha, 21st day after application, crop
Source text: as §3

[20] = tested on: soybean (Glycine max Merr.); experiment: Test Example 1: foliar treatment, upland pot; conditions: 7 g/ha, 21st day after application, crop
Source text: as §3

[21] = tested on: redroot pigweed (Amaranthus retroflexus L.); experiment: Test Example 1: foliar treatment, upland pot; conditions: 7 g/ha, 21st day after application
Source text: as §3

[22] = tested on: velvetleaf (Abutilon theophrasti MEDIC.); experiment: Test Example 1: foliar treatment, upland pot; conditions: 7 g/ha, 21st day after application
Source text: Upland field soil was put into a 1/170,000 hectare pot, and seeds of various plants were sown. […] The spray solutions thus prepared were applied for foliar treatment by a small sprayer.

COCCOc1c(S(C)(=O)=O)ccc(C(=O)c2cnn(C)c2OC(C)OC(=O)OC(C)C)c1C (racemic) [compound 4]
Growth inhibition rate (%) Rice [1]: 50% | Growth inhibition rate (%) Japanese ribbon waparo [2]: 90% | Growth inhibition rate (%) Barnyardgrass [3]: 100% | Growth inhibition rate (%) Japanese bulrush [4]: 95% | Growth inhibition rate (%) Crabgrass [5]: 100% | Growth inhibition rate (%) Barnyardgrass [6]: 100% | Growth inhibition rate (%) Prickly sida [7]: 90% | Growth inhibition rate (%) Green foxtail [8]: 95% | Growth inhibition rate (%) Rice (rice (Oryza sativa L.) [9]): 90% | Growth inhibition rate (%) Corn (corn (Zea mays L.) [10]): 0% | Growth inhibition rate (%) Velvetleaf [11]: 70% | Growth inhibition rate (%) Soybean [12]: 0% | Growth inhibition rate (%) Redroot pigweed [13]: 95% | Growth inhibition rate (%) Crabgrass [14]: 90% | Growth inhibition rate (%) Barnyardgrass [15]: 100% | Growth inhibition rate (%) Prickly sida [16]: 40% | Growth inhibition rate (%) Green foxtail [17]: 100% | Growth inhibition rate (%) Rice (rice (Oryza sativa L.) [18]): 30% | Growth inhibition rate (%) Corn (corn (Zea mays L.) [19]): 0% | Growth inhibition rate (%) Soybean [20]: 90% | Growth inhibition rate (%) Redroot pigweed [21]: 90% | Growth inhibition rate (%) Velvetleaf [22]: 98%

CCOC(=O)OC(C)Oc1c(C(=O)c2ccc(S(C)(=O)=O)c(OCCOC)c2C)c(C)nn1C (racemic) [compound 11]
Growth inhibition rate (%) Rice [1]: 60% | Growth inhibition rate (%) Japanese ribbon waparo [2]: 60% | Growth inhibition rate (%) Barnyardgrass [3]: 98% | Growth inhibition rate (%) Japanese bulrush [4]: 100% | Growth inhibition rate (%) Crabgrass [5]: 100% | Growth inhibition rate (%) Barnyardgrass [6]: 100% | Growth inhibition rate (%) Prickly sida [7]: 40% | Growth inhibition rate (%) Green foxtail [8]: 100% | Growth inhibition rate (%) Rice (rice (Oryza sativa L.) [9]): 100% | Growth inhibition rate (%) Corn (corn (Zea mays L.) [10]): 0% | Growth inhibition rate (%) Velvetleaf [11]: 70% | Growth inhibition rate (%) Soybean [12]: 20% | Growth inhibition rate (%) Redroot pigweed [13]: 100% | Growth inhibition rate (%) Crabgrass [14]: 90% | Growth inhibition rate (%) Barnyardgrass [15]: 90% | Growth inhibition rate (%) Prickly sida [16]: 10% | Growth inhibition rate (%) Green foxtail [17]: 90% | Growth inhibition rate (%) Rice (rice (Oryza sativa L.) [18]): 80% | Growth inhibition rate (%) Corn (corn (Zea mays L.) [19]): 0% | Growth inhibition rate (%) Soybean [20]: 70% | Growth inhibition rate (%) Redroot pigweed [21]: 80% | Growth inhibition rate (%) Velvetleaf [22]: 60%

CCOC(=O)OC(C)Oc1c(C(=O)c2ccc(S(C)(=O)=O)c(OCCOC)c2C)cnn1C(C)C (racemic) [compound 18]
Growth inhibition rate (%) Rice [1]: 0% | Growth inhibition rate (%) Japanese ribbon waparo [2]: 90% | Growth inhibition rate (%) Barnyardgrass [3]: 100% | Growth inhibition rate (%) Japanese bulrush [4]: 90% | Growth inhibition rate (%) Crabgrass [5]: 100% | Growth inhibition rate (%) Barnyardgrass [6]: 100% | Growth inhibition rate (%) Prickly sida [7]: 70% | Growth inhibition rate (%) Green foxtail [8]: 100% | Growth inhibition rate (%) Rice (rice (Oryza sativa L.) [9]): 100% | Growth inhibition rate (%) Corn (corn (Zea mays L.) [10]): 0% | Growth inhibition rate (%) Velvetleaf [11]: 100% | Growth inhibition rate (%) Redroot pigweed [13]: 100% | Growth inhibition rate (%) Crabgrass [14]: 95% | Growth inhibition rate (%) Barnyardgrass [15]: 95% | Growth inhibition rate (%) Prickly sida [16]: 30% | Growth inhibition rate (%) Green foxtail [17]: 90% | Growth inhibition rate (%) Rice (rice (Oryza sativa L.) [18]): 70% | Growth inhibition rate (%) Corn (corn (Zea mays L.) [19]): 0% | Growth inhibition rate (%) Soybean [20]: 80% | Growth inhibition rate (%) Redroot pigweed [21]: 95% | Growth inhibition rate (%) Velvetleaf [22]: 95%

CCOC(=O)OC(C)Oc1c(C(=O)c2ccc(S(C)(=O)=O)c(C(=O)OC)c2C)cnn1C (racemic) [compound 21]
Growth inhibition rate (%) Rice [1]: 10% | Growth inhibition rate (%) Japanese ribbon waparo [2]: 70% | Growth inhibition rate (%) Barnyardgrass [3]: 100% | Growth inhibition rate (%) Japanese bulrush [4]: 70% | Growth inhibition rate (%) Crabgrass [5]: 100% | Growth inhibition rate (%) Barnyardgrass [6]: 100% | Growth inhibition rate (%) Prickly sida [7]: 60% | Growth inhibition rate (%) Green foxtail [8]: 100% | Growth inhibition rate (%) Rice (rice (Oryza sativa L.) [9]): 100% | Growth inhibition rate (%) Corn (corn (Zea mays L.) [10]): 0% | Growth inhibition rate (%) Velvetleaf [11]: 90% | Growth inhibition rate (%) Soybean [12]: 50% | Growth inhibition rate (%) Redroot pigweed [13]: 100% | Growth inhibition rate (%) Crabgrass [14]: 90% | Growth inhibition rate (%) Barnyardgrass [15]: 90% | Growth inhibition rate (%) Green foxtail [17]: 80% | Growth inhibition rate (%) Rice (rice (Oryza sativa L.) [18]): 80% | Growth inhibition rate (%) Corn (corn (Zea mays L.) [19]): 0% | Growth inhibition rate (%) Soybean [20]: 95% | Growth inhibition rate (%) Redroot pigweed [21]: 90% | Growth inhibition rate (%) Velvetleaf [22]: 85%

CCOC(=O)OC(C)Oc1c(C(=O)c2ccc(S(C)(=O)=O)c(COCC(F)(F)F)c2C)cnn1C (racemic) [compound 15]
Growth inhibition rate (%) Rice [1]: 10% | Growth inhibition rate (%) Barnyardgrass [3]: 100% | Growth inhibition rate (%) Japanese bulrush [4]: 60% | Growth inhibition rate (%) Crabgrass [5]: 100% | Growth inhibition rate (%) Barnyardgrass [6]: 100% | Growth inhibition rate (%) Prickly sida [7]: 70% | Growth inhibition rate (%) Green foxtail [8]: 100% | Growth inhibition rate (%) Rice (rice (Oryza sativa L.) [9]): 100% | Growth inhibition rate (%) Corn (corn (Zea mays L.) [10]): 0% | Growth inhibition rate (%) Velvetleaf [11]: 100% | Growth inhibition rate (%) Soybean [12]: 0% | Growth inhibition rate (%) Redroot pigweed [13]: 100% | Growth inhibition rate (%) Crabgrass [14]: 95% | Growth inhibition rate (%) Barnyardgrass [15]: 70% | Growth inhibition rate (%) Prickly sida [16]: 0% | Growth inhibition rate (%) Green foxtail [17]: 75% | Growth inhibition rate (%) Rice (rice (Oryza sativa L.) [18]): 40% | Growth inhibition rate (%) Corn (corn (Zea mays L.) [19]): 10% | Growth inhibition rate (%) Soybean [20]: 75% | Growth inhibition rate (%) Redroot pigweed [21]: 90% | Growth inhibition rate (%) Velvetleaf [22]: 98%
